The test system of data set [1] is Botryotinia fuckeliana (Botrytis cinerea). Kind of data set: Fungicidal activity against Botryotinia fuckeliana (Botrytis cinerea) / liquid culture (gray mould). The conditions noted are these: 3-4 days after application, read-out: disease control (inhibition of growth, photometrically). The class given is cell-based. The method, then:
Fungicidal Activity Against Botryotinia fuckeliana (Botrytis cinerea)/Liquid Culture (Gray Mould) Conidia of the fungus from cryogenic storage were directly mixed into nutrient broth (Vogels broth). After placing a (DMSO) solution of test compound into a microtiter plate (96-well format), the nutrient broth containing the fungal spores was added. The test plates were incubated at 24° C. and the inhibition of growth was determined photometrically 3-4 days after application.

In data set [2] the test system is Mycosphaerella arachidis (Cercospora arachidicola). Description: Fungicidal activity against Mycosphaerella arachidis (Cercospora arachidicola) / liquid culture (early leaf spot). Format: cell-based. Particulars: 4-5 days after application, read-out: disease control (inhibition of growth, photometrically). The procedure: Fungicidal Activity Against Mycosphaerella arachidis (Cercospora arachidicola)/Liquid Culture (Early Leaf Spot) Conidia of the fungus from cryogenic storage were directly mixed into nutrient broth (PDB potato dextrose broth). After placing a (DMSO) solution of test compound into a microtiter plate (96-well format), the nutrient broth containing the fungal spores was added. The test plates were incubated at 24° C. and the inhibition of growth was determined photometrically 4-5 days after application.

For data set [3], the system named is Phaeosphaeria nodorum (Septoria nodorum). Kind of data set: Fungicidal activity against Phaeosphaeria nodorum (Septoria nodorum) / wheat / leaf disc preventative (glume blotch). The class given is in vivo. Particulars: Parastagonospora nodorum, foliar, wheat leaf segments, inoculated 2 days after application, compared to untreated, read-out: disease control. The method, then:
Fungicidal Activity Against Phaeosphaeria nodorum (Septoria nodorum)/Wheat/Leaf Disc Preventative (Glume Blotch) Wheat leaf segments cv. Kanzler were placed on agar in a multiwell plate (24-well format) and sprayed with the formulated test compound diluted in water. The leaf disks were inoculated with a spore suspension of the fungus 2 days after application. The inoculated test leaf disks were incubated at 20° C. and 75% rh under a light regime of 12 h light/12 h darkness in a climate cabinet and the activity of a compound was assessed as percent disease control compared to untreated when an appropriate level of disease damage appears in untreated check leaf disks (5-7 days after application).

In another data set the test system is Pyrenophora teres. Description: Fungicidal activity against Pyrenophora teres / barley / leaf disc preventative (net blotch). The class given is in vivo. The conditions noted are these: foliar, barley leaf segments, inoculated 2 days after application, compared to untreated, read-out: disease control. The procedure: Fungicidal Activity Against Pyrenophora teres/Barley/Leaf Disc Preventative (Net Blotch) Barley leaf segments cv. Hasso were placed on agar in a multiwell plate (24-well format) and sprayed with the formulated test compound diluted in water. The leaf segments were inoculated with a spore suspension of the fungus 2 days after application. The inoculated leaf segments were incubated at 20° C. and 65% rh under a light regime of 12 h light/12 h darkness in a climate cabinet and the activity of a compound was assessed as disease control compared to untreated when an appropriate level of disease damage appears in untreated check leaf segments (5-7 days after application).

Another data set has as its system Gaeumannomyces graminis. Description: Fungicidal activity against Gaeumannomyces graminis / liquid culture (take-all of cereals). Particulars: 4-5 days after application, read-out: disease control (inhibition of growth, photometrically). Format: cell-based. The procedure: Fungicidal Activity Against Gaeumannomyces graminis/Liquid Culture (Take-all of Cereals) Mycelial fragments of the fungus from cryogenic storage were directly mixed into nutrient broth (PDB potato dextrose broth). After placing a (DMSO) solution of test compound into a microtiter plate (96-well format), the nutrient broth containing the fungal spores iss added. The test plates were incubated at 24° C. and the inhibition of growth was determined photometrically 4-5 days after application.

Data set [4] has as its system Glomerella lagenarium (Colletotrichum lagenarium). Kind of data set: Fungicidal activity against Glomerella lagenarium (Colletotrichum lagenarium) / liquid culture (anthracnose). Format: cell-based. Particulars: Colletotrichum orbiculare, 3-4 days after application, read-out: disease control (inhibition of growth, photometrically). The procedure: Fungicidal Activity Against Glomerella lagenarium (Colletotrichum lagenarium)/Liquid Culture (Anthracnose) Conidia of the fungus from cryogenic storage were directly mixed into nutrient broth (PDB potato dextrose broth). After placing a (DMSO) solution of test compound into a microtiter plate (96-well format), the nutrient broth containing the fungal spores was added. The test plates were incubated at 24° C. and the inhibition of growth was measured photometrically 3-4 days after application.

The test system of data set [5] is Monographella nivalis (Microdochium nivale). Description: Fungicidal activity against Monographella nivalis (Microdochium nivale) / liquid culture (foot rot cereals). The class given is cell-based. The conditions noted are these: 4-5 days after application, read-out: disease control (inhibition of growth, photometrically). The method, then: Fungicidal Activity Against Monographella nivalis (Microdochium nivale)/Liquid Culture (Foot Rot Cereals) Conidia of the fungus from cryogenic storage were directly mixed into nutrient broth (PDB potato dextrose broth). After placing a (DMSO) solution of test compound into a microtiter plate (96-well format), the nutrient broth containing the fungal spores was added. The test plates were incubated at 24° C. and the inhibition of growth was determined photometrically 4-5 days after application.

The test system of data set [6] is Puccinia recondita f. sp. tritici. Kind of data set: Fungicidal activity against Puccinia recondita f. sp. tritici / wheat / leaf disc preventative (brown rust). The class given is in vivo. Particulars: foliar, wheat leaf segments, inoculated 1 day after application, compared to untreated, read-out: disease control. The method, then: Fungicidal Activity Against Puccinia recondita f. sp. tritici/Wheat/Leaf Disc Preventative (Brown Rust) Wheat leaf segments cv. Kanzler were placed on agar in multiwell plates (24-well format) and sprayed with the formulated test compound diluted in water. The leaf disks were inoculated with a spore suspension of the fungus 1 day after application. The inoculated leaf segments were incubated at 19° C. and 75% rh under a light regime of 12 h light/12 h darkness in a climate cabinet and the activity of a compound was assessed as percent disease control compared to untreated when an appropriate level of disease damage appears in untreated check leaf segments (7-9 days after application).

For data set [7], the system named is Blumeria graminis f. Sp. tritici (Erysiphe graminis f. sp. tritici). Kind of data set: Fungicidal activity against Blumeria graminis f. sp. tritici / wheat / leaf disc preventative (powdery mildew on wheat). Format: in vivo. Particulars: foliar, wheat leaf segments, inoculated 1 day after application, compared to untreated, read-out: disease control. The procedure:
Fungicidal Activity Against Blumeria graminis f. Sp. tritici (Erysiphe graminis f. sp. tritici)/Wheat/Leaf Disc Preventative (Powdery Mildew on Wheat)
Wheat leaf segments cv. Kanzler were placed on agar in a multiwell plate (24-well format) and sprayed with the formulated test compound diluted in water. The leaf disks were inoculated by shaking powdery mildew infected plants above the test plates 1 day after application. The inoculated leaf disks were incubated at 20° C. and 60% rh under a light regime of 24 h darkness followed by 12 h light/12 h darkness in a climate chamber and the activity of a compound was assessed as percent disease control compared to untreated when an appropriate level of disease damage appears on untreated check leaf segments (6-8 days after application).

The test system of data set [8] is Thanatephorus cucumeris (Rhizoctonia solani). Description: Fungicidal activity against Thanatephorus cucumeris (Rhizoctonia solani) / liquid culture (foot rot, damping-off). Format: cell-based. The conditions noted are these: 3-4 days after application, read-out: disease control (inhibition of growth, photometrically). The procedure:
Fungicidal Activity Against Thanatephorus cucumeris (Rhizoctonia solani)/Liquid Culture (Foot Rot, Damping-Off) Mycelia fragments of a newly grown liquid culture of the fungus were directly mixed into nutrient broth (PDB potato dextrose broth). After placing a (DMSO) solution of the test compounds into a microtiter plate (96-well format), the nutrient broth containing the fungal material was added. The test plates were incubated at 24° C. and the inhibition of growth was determined photometrically 3-4 days after application.

Data set [9] deals with Mycosphaerella graminicola (Septoria tritici). Description: Fungicidal activity against Mycosphaerella graminicola (Septoria tritici) / liquid culture (Septoria blotch). The class given is cell-based. Particulars: Zymoseptoria tritici, 4-5 days after application, read-out: disease control (inhibition of growth, photometrically). The method, then:
Fungicidal Activity Against Mycosphaerella graminicola (Septoria tritici)/Liquid Culture (Septoria Blotch) Conidia of the fungus from cryogenic storage were directly mixed into nutrient broth (PDB potato dextrose broth). After placing a (DMSO) solution of test compound into a microtiter plate (96-well format), the nutrient broth containing the fungal spores was added. The test plates were incubated at 24° C. and the inhibition of growth was determined photometrically 4-5 days after application.

Bounds are passed on as bounds.

The record followed here is patent publication US20130281467A1, “NOVEL MICROBICIDES” (SYNGENTA PARTICIPATIONS AG, priority 2010, published 2013).

In the case of `N#Cc1cccc(Cc2cccc(-c3ncc4c(n3)CCOC4)n2)c1` [Compound 8], the melting point (as a rule, the temperature, or range, at which the solid turns liquid) lay within 206 to 207 °C.
Regarding `CC1(C)CCc2cnc(-c3cccc(Cc4ccc(Cl)cc4)n3)nc2C1` [Compound 12], the melting point fell in the range of 183 to 184 °C. Moreover, in data set [1], the inhibition (in general, the percentage by which the read-out fell short of the control) at 200 ppm is ≥ 80%. Moreover, the inhibition at 200 ppm in data set [2] was ≥ 80%.
For the compound `CO/N=C1\CC(C)(C)Cc2nc(-c3cccc(Cc4ccccc4OC)n3)ncc21` [Compound 10], the melting point fell in the range of 239 to 241 °C.
Take `COc1ccc(Cc2cccc(-c3ncc4c(n3)CCCCC4)n2)cc1` [Compound 35]: the pest or weed control at 200 ppm (in data set [3]; in the data set with Pyrenophora teres; in data set [6]; in data set [7]) was ≥ 80% each time. The inhibition at 200 ppm (with Gaeumannomyces graminis; in data set [4]; in [5]; in data set [1]; in [8]; in data set [9]) was ≥ 80% each time. Also, the inhibition at 200 ppm in data set [2] was ≥ 80%.
For the compound `Clc1ccccc1Cc1cccc(-c2ncc3c(n2)OCCO3)n1` [Compound 28], the pest or weed control at 200 ppm (in [3]; in the data set on Pyrenophora teres; in data set [6]; in data set [7]) was ≥ 80% in each case. For the same compound, the inhibition at 200 ppm (with Gaeumannomyces graminis; in data set [4]; in data set [5]; in data set [1]; in data set [8]; in data set [9]) was ≥ 80% throughout. In [2], the inhibition at 200 ppm was ≥ 80%.
Regarding `Cc1ccccc1Cc1cccc(-c2ncc3c(n2)CCCCC3)n1` [Compound 32], the pest or weed control at 200 ppm (in [3]; in the data set with Pyrenophora teres; in data set [6]; in [7]) was ≥ 80% in each case. The inhibition at 200 ppm (in the data set on Gaeumannomyces graminis; in data set [4]; in data set [5]; in data set [1]; in data set [8]; in data set [9]) was ≥ 80% throughout. For the same compound, the inhibition at 200 ppm in data set [2] is ≥ 80%.
Regarding `Cc1ccc(Cc2cccc(-c3ncc4c(n3)CCCCC4)n2)cc1` [Compound 30], the pest or weed control at 200 ppm (in [3]; with Pyrenophora teres; in data set [6]; in data set [7]) was ≥ 80% in each case. The inhibition at 200 ppm (in the data set with Gaeumannomyces graminis; in [4]; in data set [5]; in data set [1]; in data set [8]; in [9]) was ≥ 80% in each case. Moreover, the inhibition at 200 ppm in [2] is ≥ 80%.
Regarding `COc1ccc(Cc2cccc(-c3ncc4c(n3)CC(C)(C)CC4)n2)cn1` [Compound 42], the pest or weed control at 200 ppm (in data set [3]; in the data set with Pyrenophora teres; in data set [6]; in data set [7]) was ≥ 80% in each case. The inhibition at 200 ppm (in the data set on Gaeumannomyces graminis; in [4]; in data set [5]; in data set [1]; in data set [8]; in data set [9]) was ≥ 80% throughout. The inhibition at 200 ppm in [2] is ≥ 80%.
As to `O=C1CCCc2nc(-c3cccc(Cc4ccccc4)n3)ncc21` [Compound 20], the melting point was in the range of 69 to 75 °C. The inhibition at 200 ppm in the data set with Gaeumannomyces graminis is ≥ 80%. Further, the inhibition at 200 ppm in data set [4] is ≥ 80%. Also, the inhibition at 200 ppm in data set [1] is ≥ 80%. Besides, the inhibition at 200 ppm in data set [9] was ≥ 80%. Also, the inhibition at 200 ppm in data set [2] was ≥ 80%.
